Test results: patent US20260069693A1, “UROLITHINS AND T-CELL MEDIATED IMMUNE RESPONSE” (priority 2022, published 2026)

Key:
CEA-CAR T cells = test: UA applied to previously frozen CEA-CAR T cells; type: cell-based, human; conditions: previously frozen CEA-specific CAR-T cells, UA for three days
APTK-induced tumors = test: subcutaneous APTK tumors in Pink1-/- mice, UA diet; type: in vivo
Source text: UA activates mitophagy in myocytes and hippocampal neurons via a Pink1/Parkin mediated stress-response (D'Amico et al., 2021). […] Moreover, UA stabilized Parkin protein expression (FIG. 4G). To functionally confirm the dependence of UA induced TSCM formation on Pink1/Parkin mediated mitophagy, the inventors activated Pink1^−/− T cells in the presence or absence of UA. Loss of Pink1 prevented the UA-induced lysosome formation as well as the decrease in mitochondrial content (FIG. 4H, I).
Tumors were minced and digested with Tumor & Tissue Dissociation Reagent (BD Horizon) for 30 min. The remaining organ pieces were filtered through a 70 μm cell strainer. Cells were then washed with PBS 1% BSA and 2 mM EDTA. Immune cells were enriched on a 30%/40%/75% Percoll gradient after a 1700 rpm 17 min centrifugation. Then, tumor immune filtrates or activated T cells were stained with Fixable Viability Dye-eF780 (65-0865-14; eBioscience), αCD45-FITC (30-F11; 11-0451-85; eBioscience), αCD11b-BV650 (M1/70; 56340; BD) α-CD11C-BV785 (HL3; 563735; BD), αLy6G-BV605 (53-6.7; 563005; BD), αLy6C-AF700 (HK1.4; 128024; Biolegend), αF4/80-PE (BM8; 12-4801-82, eBioscience), αPD-L1-PECy7 (MIH5; 25-5982-80, eBioscience); or with Fixable Viability Dye-eF780 (ebioscience), αCD45-BV786 (30-F11; 564225; BD), αCD4-BUV496 (GK1.5; 564667; BD), αCD8-BV605 (100744; Biolegend), αPD1-APC (J43; 17-9985-82; eBioscience), αTIM-3-PECy7 (RMT3-23; 119715; Biolegend), αCTLA4-PE (UC10-4B9; 106305; Biolegend) and αLag3-BV421 (C9B7W; 125221, Biolegend); or with Fixable Viability Dye-eF780 (eBioscience), αCD4-FITC (H129.19; 553650; BD), αCD8-APC (53-6.7; 17-0081-83; eBioscience), αCD44-AF400 (IM7; 103026; Biolegend), αCD62L-BV785 (MEL-14; 104440; Biolegend), αSca-1-PerCP-Cy5.5 (D7; 45-5981-82; eBioscience), αCD95-PE (Jo2; 554258; BD); or with Fixable Viability Dye-eF780 (eBioscience), αCD8-BV650 (53-6.7; 563234; BD), αCD4-BUV496 (GK1.5; 564667; BD), αCD127-APC (A7R34; 17-1271-82; eBioscience), αCD95-FITC (SA367H8; 152605; Biolegend), αCD44-AF400 (IM7; 103026; Biolegend), αCD62L-BV785 (MEL-14; 104440; Biolegend), αSca-1-PerCP-Cy5.5 (D7; 45-5981-82; eBioscience) followed by intracellular staining of αTCF1-PE (S33-966; 564217; BD), or PGC-1α (sc-518025; D-5; santa cruz), or αCyclinD1 (MA5-28534, DCS-6; Invitrogen) with transcription factor buffer set kit (BD Biosciences). To study cytokine expression, tumor immune infiltrates were stimulated ex vivo with 20 ng/ml PMA and 1 μg/ml Ionomycin (Sigma) for 3 h in T cell activation medium with Brefeldin A (Biolegend). For T cell in vitro activation experiments over several days, Brefeldin A was added to the medium for the last 3 hours.

C. elegans = conditions: cited from earlier work
APTK organoids = test: APTK tumor organoids incubated with UA, flow cytometry
[1] = cited from earlier work
[2] = increasing concentrations of UA (25-50 μM)

SMILES: O=c1oc2cc(O)ccc2c2ccc(O)cc12 [UA, Urolithin A]
- CAR TSCM formation (CEA-CAR T cells): strongly enhanced
- tumor growth (tumor suppressive effect of UA) (APTK-induced tumors; Pink1 deletion, UA-containing vs control diet): abrogated the tumor suppressive effect of UA
- TCF-1 expression in CD8+ TIL (APTK-induced tumors; UA vs control diet): did not exhibit differences
- exhaustion markers in CD8+ TIL (APTK-induced tumors; UA vs control diet): did not exhibit differences
- ex vivo cytokine release of CD8+ TIL (APTK-induced tumors; UA vs control diet, PMA/Ionomycin): did not exhibit differences
- lifespan (C. elegans): prolonged lifespan
- mitochondrial content (C. elegans): higher mitochondrial content
- MHC-I (antigen presentation) (APTK organoids; UA 25-50 μM, 48 h): marked upregulation
- MitoTracker staining (APTK organoids; [2]): concomitant loss
- formation of lysosomes (lysotracker) (APTK organoids; [2]): dose-dependent formation
- muscle function ([1]; Rodents fed with a UA-high diet): superior muscle function
- muscle function in mice with Duchenne muscular dystrophy ([1]; UA-high diet): recovery of muscle function
